Results as given in PubChem BioAssay AID1963970 (Molecular Pharmacology Branch, DTP, NCI, 2024).

Tested on: 931267-113-T-J1-PDC multicell spheroid viability
Test: Anticancer human tumor 931267-113-T-J1-PDC patient-derived colon adenocarcinoma cell line growth inhibition [PI3K]
Conditions: for IC50: curve of first compound; for viability, T/C: stronger effect = lower value
Excerpt: Combinatorial screen of targeted agents with the PI3K inhibitors inavolisib, alpelisib, duvelisib, and copanlisib in multi-cell type tumor spheroids
A high-throughput screen of multi-cell type tumor spheroids was designed to identify active combinations of targeted small molecules and PI3K pathway inhibitors. Complex spheroids include a stromal component modeled by human endothelial cells (HUVEC) and fibroblasts modeled by human mesenchymal stem cells (MSCs). The concentration ranges selected for each drug and investigational agent were based upon clinically achievable concentrations if the clinical Cmax of the agent was known.
Compounds. The drugs and investigational agents: inavolisib (NSC800729), alpelisib (NSC765974), duvelisib (NSC772469), copanlisib (NSC816437), ipatasertib (NSC767898), afuresertib (NSC778305), talazoparib (NSC767125), sapanisertib (NSC764658), selumetinib (NSC741078), tovorafenib (DAY101, NSC766906), vemurafenib (NSC761431), ravoxertinib (NSC781343), sotorasib (NSC818433), MRTX1133 (NSC 836407), abemaciclib (NSC 768073), palbociclib (NSC758247), venetoclax (NSC 766270), SY5609 (NSC837396), enzalutamide (NSC755605), and darolutamide (NSC825331), were obtained from the National Cancer Institute (NCI) Developmental Therapeutics Program Chemical Repository. The FDA-approved anticancer drug set is available from the NCI Developmental Therapeutics Program. […] The stock solutions were prepared in dimethyl sulfoxide (DMSO, Sigma-Aldrich, St. Louis, MO, cat. D2650) at 800-fold the tested concentration and stored at -70 degrees C prior to their use. All drugs and investigational agents were tested over a range starting from a high concentration at or near the clinical Cmax and decreasing in half-log increments. If the clinical Cmax for an agent had not been determined, the highest concentration tested was 10 microM.
Cell Culture. All cells were maintained in an incubator at 37 degrees C and 5% CO2 with 95% humidity. The PDC lines were cultured according to standard operating procedures established by the NCI PDMR (https://pdmr.cancer.gov/sops/default.htm). All PDCs were thawed and cultured in Matrigel-coated flasks prepared with a working solution of 1X Ham's F-12 nutrient mix, without supplementation (Invitrogen, Waltham, MA, cat. 11765054), 100 U/mL penicillin-streptomycin (Invitrogen, cat. 15140122), and 2.5% Matrigel (Corning Inc., Corning, NY, cat. 354248) for the first three passages. The 354836-022-R-J1-PDC, 475296-252-R-J1-PDC, and 997726-040-R-J2-PDC lines were cultured in 6A media, which includes advanced DMEM/F-12 (Thermo Fisher Scientific, cat. 12634028), 10 mM HEPES (Thermo Fisher Scientific, cat. 15630080), 1X GlutaMAX supplement (Thermo Fisher Scientific, cat. 35050061), 0.1 mg/mL primocin (InvivoGen, San Diego, CA, cat. ant-pm-2), 10% defined fetal bovine serum, heat inactivated (HyClone Laboratories Inc., Logan, UT, cat. SH30070.03HI), 50% L-WRN conditioned media (ATCC, cat. CRL-3276), 1.25 mM N-Acetyl-L-cysteine (Sigma-Aldrich, cat. A9165), 10 mM nicotinamide (Sigma-Aldrich, cat. N0636), 1X B-27 supplement (Thermo Fisher Scientific, cat. 17504044), 1X N-2 supplement (Thermo Fisher Scientific, cat. 17502048), and 10 microM Y-27632 dihydrochloride (Tocris Bioscience, Bristol, United Kingdom, cat. 1254). The 624824-186-R-J2-PDC line was cultured in 6C/Colon 1B media, which includes all 6A media components plus 50 ng/mL human EGF recombinant protein (Thermo Fisher Scientific, cat. PHG0311). […]
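Note: viability read 7 days after compound addition.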

CNC(=O)c1ccc(N2C(=S)N(c3ccc(C#N)c(C(F)(F)F)c3)C(=O)C2(C)C)cc1F + CC(Nc1ccc2c(c1)OCCn1cc(N3C(=O)OCC3C(F)F)nc1-2)C(N)=O
IC50 (second compound 0.00316 µM): > 10000 nM | IC50 (second compound 0.01 µM): > 10000 nM | IC50 (second compound 0.0316 µM): > 10000 nM | IC50 (second compound 0.1 µM): > 10000 nM | IC50 (second compound 0.316 µM): > 10000 nM | IC50 (second compound 1 µM): > 10000 nM | viability, T/C (second compound 0.00316 µM, first compound 0.0316 µM): 99% | viability, T/C (second compound 0.00316 µM, first compound 0.1 µM): 102% | viability, T/C (second compound 0.00316 µM, first compound 0.316 µM): 85.9% | viability, T/C (second compound 0.00316 µM, first compound 1 µM): 111% | viability, T/C (second compound 0.00316 µM, first compound 3.16 µM): 119% | viability, T/C (second compound 0.00316 µM, first compound 10 µM): 106% | viability, T/C (second compound 0.01 µM, first compound 0.0316 µM): 107% | viability, T/C (second compound 0.01 µM, first compound 0.1 µM): 93.2% | viability, T/C (second compound 0.01 µM, first compound 0.316 µM): 107% | viability, T/C (second compound 0.01 µM, first compound 1 µM): 106% | viability, T/C (second compound 0.01 µM, first compound 3.16 µM): 99.8% | viability, T/C (second compound 0.01 µM, first compound 10 µM): 109% | viability, T/C (second compound 0.0316 µM, first compound 0.0316 µM): 97.2% | viability, T/C (second compound 0.0316 µM, first compound 0.1 µM): 90.2% | viability, T/C (second compound 0.0316 µM, first compound 0.316 µM): 96.4% | viability, T/C (second compound 0.0316 µM, first compound 1 µM): 90.1% | viability, T/C (second compound 0.0316 µM, first compound 3.16 µM): 95.1% | viability, T/C (second compound 0.0316 µM, first compound 10 µM): 87.6% | viability, T/C (second compound 0.1 µM, first compound 0.0316 µM): 98.4% | viability, T/C (second compound 0.1 µM, first compound 0.1 µM): 88.5% | viability, T/C (second compound 0.1 µM, first compound 0.316 µM): 92.2% | viability, T/C (second compound 0.1 µM, first compound 1 µM): 81.9% | viability, T/C (second compound 0.1 µM, first compound 3.16 µM): 91.9% | viability, T/C (second compound 0.1 µM, first compound 10 µM): 77.6% | viability, T/C (second compound 0.316 µM, first compound 0.0316 µM): 82% | viability, T/C (second compound 0.316 µM, first compound 0.1 µM): 78.9% | viability, T/C (second compound 0.316 µM, first compound 0.316 µM): 77% | viability, T/C (second compound 0.316 µM, first compound 1 µM): 76.1% | viability, T/C (second compound 0.316 µM, first compound 3.16 µM): 79.8% | viability, T/C (second compound 0.316 µM, first compound 10 µM): 70% | viability, T/C (second compound 1 µM, first compound 0.0316 µM): 76.3% | viability, T/C (second compound 1 µM, first compound 0.1 µM): 67.9% | viability, T/C (second compound 1 µM, first compound 0.316 µM): 75.5% | viability, T/C (second compound 1 µM, first compound 1 µM): 70% | viability, T/C (second compound 1 µM, first compound 3.16 µM): 71.2% | viability, T/C (second compound 1 µM, first compound 10 µM): 54.7%

Cn1cnc2c(F)c(Nc3ccc(Br)cc3Cl)c(C(=O)NOCCO)cc21 + CC(Nc1ccc2c(c1)OCCn1cc(N3C(=O)OCC3C(F)F)nc1-2)C(N)=O
IC50 (second compound 0.00316 µM): 119 nM | IC50 (second compound 0.01 µM): 99.7 nM | IC50 (second compound 0.0316 µM): 80.1 nM | IC50 (second compound 0.1 µM): 54.6 nM | IC50 (second compound 0.316 µM): 36.4 nM | IC50 (second compound 1 µM): 19.8 nM | viability, T/C (second compound 0.00316 µM, first compound 0.00949 µM): 69.8% | viability, T/C (second compound 0.00316 µM, first compound 0.03 µM): 71.2% | viability, T/C (second compound 0.00316 µM, first compound 0.0949 µM): 52.1% | viability, T/C (second compound 0.00316 µM, first compound 0.3 µM): 33.3% | viability, T/C (second compound 0.00316 µM, first compound 0.949 µM): 21.4% | viability, T/C (second compound 0.00316 µM, first compound 3 µM): 11.4% | viability, T/C (second compound 0.01 µM, first compound 0.00949 µM): 91.1% | viability, T/C (second compound 0.01 µM, first compound 0.03 µM): 74.7% | viability, T/C (second compound 0.01 µM, first compound 0.0949 µM): 50% | viability, T/C (second compound 0.01 µM, first compound 0.3 µM): 31% | viability, T/C (second compound 0.01 µM, first compound 0.949 µM): 15.3% | viability, T/C (second compound 0.01 µM, first compound 3 µM): 10.8% | viability, T/C (second compound 0.0316 µM, first compound 0.00949 µM): 89.6% | viability, T/C (second compound 0.0316 µM, first compound 0.03 µM): 69.5% | viability, T/C (second compound 0.0316 µM, first compound 0.0949 µM): 47.9% | viability, T/C (second compound 0.0316 µM, first compound 0.3 µM): 25.2% | viability, T/C (second compound 0.0316 µM, first compound 0.949 µM): 15.2% | viability, T/C (second compound 0.0316 µM, first compound 3 µM): 9.45% | viability, T/C (second compound 0.1 µM, first compound 0.00949 µM): 75.9% | viability, T/C (second compound 0.1 µM, first compound 0.03 µM): 61.8% | viability, T/C (second compound 0.1 µM, first compound 0.0949 µM): 39.3% | viability, T/C (second compound 0.1 µM, first compound 0.3 µM): 21.3% | viability, T/C (second compound 0.1 µM, first compound 0.949 µM): 15.2% | viability, T/C (second compound 0.1 µM, first compound 3 µM): 8.34% | viability, T/C (second compound 0.316 µM, first compound 0.00949 µM): 78.3% | viability, T/C (second compound 0.316 µM, first compound 0.03 µM): 53.9% | viability, T/C (second compound 0.316 µM, first compound 0.0949 µM): 31.3% | viability, T/C (second compound 0.316 µM, first compound 0.3 µM): 17.2% | viability, T/C (second compound 0.316 µM, first compound 0.949 µM): 10.9% | viability, T/C (second compound 0.316 µM, first compound 3 µM): 6.16% | viability, T/C (second compound 1 µM, first compound 0.00949 µM): 63.1% | viability, T/C (second compound 1 µM, first compound 0.03 µM): 42% | viability, T/C (second compound 1 µM, first compound 0.0949 µM): 28.7% | viability, T/C (second compound 1 µM, first compound 0.3 µM): 15.9% | viability, T/C (second compound 1 µM, first compound 0.949 µM): 10.3% | viability, T/C (second compound 1 µM, first compound 3 µM): 4.28%
